Experimental data from ChEMBL document CHEMBL4673225, “Highly Selective PTK2 Proteolysis Targeting Chimeras to Probe Focal Adhesion Kinase Scaffolding Functions” (J Med Chem, 2019).
Activity calls are given as the source filed them. No cut-off for these calls is given here.

Tests used:
[1] = target: T1, von Hippel-Lindau disease tumor suppressor/Focal adhesion kinase 1 (Homo sapiens, UniProt Q05397+P40337); assay: Protac activity at VHL/PTK2 in human SNU-387 cells assessed as induction of PTK2 degradation incubated for 18 hrs by protein capillary electrophoresis method relative to control; format: cell-based
Target sequence in this assay (P40337 whole entry partner): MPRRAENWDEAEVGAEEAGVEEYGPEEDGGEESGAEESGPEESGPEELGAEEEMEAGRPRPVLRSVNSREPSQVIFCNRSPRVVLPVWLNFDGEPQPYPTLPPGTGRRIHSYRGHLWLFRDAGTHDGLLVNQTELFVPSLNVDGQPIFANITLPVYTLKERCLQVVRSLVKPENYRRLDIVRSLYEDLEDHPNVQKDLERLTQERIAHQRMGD
Target sequence in this assay (Q05397 2-1052 limits assumed): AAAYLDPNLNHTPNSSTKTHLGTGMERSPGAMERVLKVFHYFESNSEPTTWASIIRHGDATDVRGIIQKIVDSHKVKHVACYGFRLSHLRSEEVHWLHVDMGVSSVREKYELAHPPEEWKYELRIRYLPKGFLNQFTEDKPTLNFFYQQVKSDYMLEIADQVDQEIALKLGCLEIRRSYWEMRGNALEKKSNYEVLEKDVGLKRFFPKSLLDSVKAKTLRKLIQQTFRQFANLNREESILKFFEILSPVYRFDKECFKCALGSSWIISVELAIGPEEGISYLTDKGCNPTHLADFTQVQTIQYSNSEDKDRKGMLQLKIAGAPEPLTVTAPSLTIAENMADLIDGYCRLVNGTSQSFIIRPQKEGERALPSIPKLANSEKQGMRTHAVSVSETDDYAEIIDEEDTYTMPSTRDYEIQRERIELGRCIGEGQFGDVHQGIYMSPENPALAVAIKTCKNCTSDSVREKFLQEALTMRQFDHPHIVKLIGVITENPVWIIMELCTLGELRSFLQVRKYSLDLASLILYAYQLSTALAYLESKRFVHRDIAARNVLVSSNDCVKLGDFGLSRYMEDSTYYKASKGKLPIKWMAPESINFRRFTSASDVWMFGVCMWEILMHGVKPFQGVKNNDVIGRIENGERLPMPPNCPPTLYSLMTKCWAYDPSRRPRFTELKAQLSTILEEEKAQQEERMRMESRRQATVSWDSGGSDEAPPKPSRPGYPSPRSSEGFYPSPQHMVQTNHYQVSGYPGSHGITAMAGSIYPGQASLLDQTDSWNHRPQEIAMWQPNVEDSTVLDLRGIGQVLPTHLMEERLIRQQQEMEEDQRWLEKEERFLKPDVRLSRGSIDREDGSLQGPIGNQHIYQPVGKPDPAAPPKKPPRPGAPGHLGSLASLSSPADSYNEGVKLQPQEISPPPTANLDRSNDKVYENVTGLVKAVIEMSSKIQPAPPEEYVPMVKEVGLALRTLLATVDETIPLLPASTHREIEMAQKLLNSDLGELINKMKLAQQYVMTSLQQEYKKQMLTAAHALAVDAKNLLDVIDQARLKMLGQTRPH

[2] = target: T1, von Hippel-Lindau disease tumor suppressor/Focal adhesion kinase 1; assay: Protac activity at VHL/PTK2 in human HuCCT-1 cells assessed as induction of PTK2 degradation incubated for 18 hrs by protein capillary electrophoresis method; format: cell-based
Focal adhesion kinase 1 = Focal adhesion kinase 1 (Homo sapiens, UniProt Q05397); assay: Inhibition of PTK2 (unknown origin) at 1 uM relative to control
[3] = target: T1, von Hippel-Lindau disease tumor suppressor/Focal adhesion kinase 1; assay: Protac activity at VHL/PTK2 in human HLF1 cells assessed as induction of PTK2 degradation incubated for 18 hrs by protein capillary electrophoresis method relative to control; format: cell-based
Target sequence in this assay (P40337 whole entry partner): as the sequence (P40337 whole entry partner) above
Target sequence in this assay (Q05397 2-1052 limits assumed): as the sequence (Q05397 2-1052 limits assumed) above

[4] = target: T1, von Hippel-Lindau disease tumor suppressor/Focal adhesion kinase 1; assay: Protac activity at VHL/PTK2 in human HepG2 cells assessed as induction of PTK2 degradation incubated for 18 hrs by protein capillary electrophoresis method; format: cell-based
[5] = target: T1, von Hippel-Lindau disease tumor suppressor/Focal adhesion kinase 1; assay: Protac activity at VHL/PTK2 in human SNU-398 cells assessed as induction of PTK2 degradation incubated for 18 hrs by protein capillary electrophoresis method; format: cell-based
[6] = target: T1, von Hippel-Lindau disease tumor suppressor/Focal adhesion kinase 1; assay: Protac activity at VHL/PTK2 in human SNU-423 cells assessed as induction of PTK2 degradation incubated for 18 hrs by protein capillary electrophoresis method; format: cell-based
[7] = target: T1, von Hippel-Lindau disease tumor suppressor/Focal adhesion kinase 1; assay: Protac activity at VHL/PTK2 in human A549 cells assessed as time required for maximal induction of PTK2 degradation at 3 uM by protein capillary electrophoresis method; format: cell-based
Target sequence in this assay (P40337 whole entry partner): as the sequence (P40337 whole entry partner) above
Target sequence in this assay (Q05397 2-1052 limits assumed): as the sequence (Q05397 2-1052 limits assumed) above

[8] = target: T1, von Hippel-Lindau disease tumor suppressor/Focal adhesion kinase 1; assay: Protac activity at VHL/PTK2 in human A549 cells assessed as induction of PTK2 degradation incubated for 18 hrs by protein capillary electrophoresis method relative to control; format: cell-based
Target sequence in this assay (P40337 whole entry partner): as the sequence (P40337 whole entry partner) above
Target sequence in this assay (Q05397 2-1052 limits assumed): as the sequence (Q05397 2-1052 limits assumed) above

[9] = target: T2, Protein cereblon/Focal adhesion kinase 1 (Homo sapiens, UniProt Q05397+Q96SW2); assay: Protac activity at CRBN/PTK2 in human A549 cells assessed as time required for maximal induction of PTK2 degradation at 3 uM by protein capillary electrophoresis method; format: cell-based
Target sequence in this assay (Q05397 2-1052 limits assumed): as above
Target sequence in this assay (Q96SW2 whole entry partner): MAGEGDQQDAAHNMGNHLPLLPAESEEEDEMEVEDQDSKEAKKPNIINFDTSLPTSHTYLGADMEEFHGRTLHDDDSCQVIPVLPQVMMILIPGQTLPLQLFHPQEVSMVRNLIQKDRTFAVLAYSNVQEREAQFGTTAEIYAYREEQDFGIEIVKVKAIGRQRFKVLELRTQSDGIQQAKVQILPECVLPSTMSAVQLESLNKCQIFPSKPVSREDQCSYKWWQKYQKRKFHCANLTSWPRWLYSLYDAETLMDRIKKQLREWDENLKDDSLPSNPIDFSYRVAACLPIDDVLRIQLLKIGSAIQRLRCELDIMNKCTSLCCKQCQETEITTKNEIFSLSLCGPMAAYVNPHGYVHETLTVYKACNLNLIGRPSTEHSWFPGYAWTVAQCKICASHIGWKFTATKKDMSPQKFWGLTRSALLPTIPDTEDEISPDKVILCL

[10] = Stability in DMSO as solid form; format: physicochemical
[11] = target: T2, Protein cereblon/Focal adhesion kinase 1; assay: Protac activity at CRBN/PTK2 in human HuH-1 cells assessed as induction of PTK2 degradation incubated for 18 hrs by protein capillary electrophoresis method; format: cell-based
Target sequence in this assay (Q05397 whole entry): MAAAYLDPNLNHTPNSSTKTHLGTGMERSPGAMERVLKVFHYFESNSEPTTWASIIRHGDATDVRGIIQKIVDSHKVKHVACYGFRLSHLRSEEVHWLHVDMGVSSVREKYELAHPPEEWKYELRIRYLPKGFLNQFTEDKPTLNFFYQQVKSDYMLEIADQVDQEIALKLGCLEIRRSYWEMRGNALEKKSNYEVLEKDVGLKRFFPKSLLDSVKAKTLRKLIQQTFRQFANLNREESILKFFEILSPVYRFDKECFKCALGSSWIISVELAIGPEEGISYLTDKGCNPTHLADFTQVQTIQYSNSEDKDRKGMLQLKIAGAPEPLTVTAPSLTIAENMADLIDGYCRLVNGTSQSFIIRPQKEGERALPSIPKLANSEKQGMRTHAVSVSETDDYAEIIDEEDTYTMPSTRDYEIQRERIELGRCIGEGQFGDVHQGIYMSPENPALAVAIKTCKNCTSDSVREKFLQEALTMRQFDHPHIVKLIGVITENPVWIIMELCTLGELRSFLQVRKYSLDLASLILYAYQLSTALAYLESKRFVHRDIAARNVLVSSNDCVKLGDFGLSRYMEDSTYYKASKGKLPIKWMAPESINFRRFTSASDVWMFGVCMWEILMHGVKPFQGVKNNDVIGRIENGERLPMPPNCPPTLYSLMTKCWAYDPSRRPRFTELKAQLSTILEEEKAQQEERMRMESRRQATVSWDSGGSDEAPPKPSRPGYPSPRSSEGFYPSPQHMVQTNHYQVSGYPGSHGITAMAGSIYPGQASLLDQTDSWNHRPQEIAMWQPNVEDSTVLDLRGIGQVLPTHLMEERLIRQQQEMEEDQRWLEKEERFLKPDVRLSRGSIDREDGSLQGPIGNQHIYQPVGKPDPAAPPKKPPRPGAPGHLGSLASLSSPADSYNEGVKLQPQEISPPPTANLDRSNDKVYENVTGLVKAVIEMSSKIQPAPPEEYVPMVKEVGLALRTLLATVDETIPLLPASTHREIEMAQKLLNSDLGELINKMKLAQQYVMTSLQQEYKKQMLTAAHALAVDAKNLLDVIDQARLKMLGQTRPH
Target sequence in this assay (Q96SW2 whole entry): as the sequence (Q96SW2 whole entry partner) above

[12] = target: T2, Protein cereblon/Focal adhesion kinase 1; assay: Protac activity at CRBN/PTK2 in human A549 cells assessed as induction of PTK2 degradation at 1 to 100000 nM incubated for 18 hrs in presence of NEDD8 inhibitor […] by protein capillary electrophoresis method; format: cell-based; conditions: dose 1-100000 nM
Target sequence in this assay (Q05397 2-1052 limits assumed): as the sequence (Q05397 2-1052 limits assumed) above
Target sequence in this assay (Q96SW2 whole entry partner): as the sequence (Q96SW2 whole entry partner) above

[13] = target: T2, Protein cereblon/Focal adhesion kinase 1; assay: Protac activity at CRBN/PTK2 in human Hep3B2.1-7 cells assessed as induction of PTK2 degradation incubated for 18 hrs by protein capillary electrophoresis method; format: cell-based; conditions: hep3b
Target sequence in this assay (Q05397 whole entry): as the sequence (Q05397 whole entry) above
Target sequence in this assay (Q96SW2 whole entry): as the sequence (Q96SW2 whole entry partner) above

[14] = target: T2, Protein cereblon/Focal adhesion kinase 1; assay: Protac activity at CRBN/PTK2 in human HLF1 cells assessed as induction of PTK2 degradation incubated for 18 hrs by protein capillary electrophoresis method; format: cell-based
Target sequence in this assay (Q05397 whole entry): as the sequence (Q05397 whole entry) above
Target sequence in this assay (Q96SW2 whole entry): as the sequence (Q96SW2 whole entry partner) above

[15] = target: T2, Protein cereblon/Focal adhesion kinase 1; assay: Protac activity at CRBN/PTK2 in human SK-HEP1 cells assessed as induction of PTK2 degradation incubated for 18 hrs by protein capillary electrophoresis method relative to control; format: cell-based
Target sequence in this assay (Q05397 2-1052 limits assumed): as the sequence (Q05397 2-1052 limits assumed) above
Target sequence in this assay (Q96SW2 whole entry partner): as the sequence (Q96SW2 whole entry partner) above

[16] = target: T2, Protein cereblon/Focal adhesion kinase 1; assay: Protac activity at CRBN/PTK2 in human SNU-387 cells assessed as induction of PTK2 degradation incubated for 18 hrs by protein capillary electrophoresis method; format: cell-based
Target sequence in this assay (Q05397 whole entry): as the sequence (Q05397 whole entry) above
Target sequence in this assay (Q96SW2 whole entry): as the sequence (Q96SW2 whole entry partner) above

[17] = target: T2, Protein cereblon/Focal adhesion kinase 1; assay: Protac activity at CRBN/PTK2 in human SNU-398 cells assessed as induction of PTK2 degradation incubated for 18 hrs by protein capillary electrophoresis method; format: cell-based
Target sequence in this assay (Q05397 whole entry): as the sequence (Q05397 whole entry) above
Target sequence in this assay (Q96SW2 whole entry): as the sequence (Q96SW2 whole entry partner) above

[18] = target: T2, Protein cereblon/Focal adhesion kinase 1; assay: Protac activity at CRBN/PTK2 in human HepG2 cells assessed as induction of PTK2 degradation incubated for 18 hrs by protein capillary electrophoresis method relative to control; format: cell-based
Target sequence in this assay (Q05397 2-1052 limits assumed): as the sequence (Q05397 2-1052 limits assumed) above
Target sequence in this assay (Q96SW2 whole entry partner): as the sequence (Q96SW2 whole entry partner) above

Emax [1]	pDC50 [2]	inhibition (Focal adhesion kinase 1)	Emax [3]	pDC50 [4]	pDC50 [5]	pDC50 [6]	TIME [7]	Emax [8]	TIME [9]	Stabilty [10]	pDC50 [11]	Activity [12]	pDC50 [13]	pDC50 [14]	Emax [15]	pDC50 [16]	pDC50 [17]	Emax [18]	SMILES
98%	6.9	> 90%	66%	6.2	8	7.1	72 h	80%											COc1cc(C(=O)NCCOCCOCCOCC(=O)N[C@H](C(=O)N2C[C@H](O)C[C@H]2C(=O)NCc2ccc(-c3scnc3C)cc2)C(C)(C)C)ccc1Nc1ncc(C(F)(F)F)c(Oc2cccc3c2C(=O)CC3)n1
									18 h	> 3 months	6.6	inactive	7.9	6.4	89%	7.6	8.5	89%	COc1cc(C(=O)NCCOCCOCCOCCC(=O)Nc2cccc3c2C(=O)N(C2CCC(=O)NC2=O)C3=O)ccc1Nc1ncc(C(F)(F)F)c(Oc2cccc3c2C(=O)CC3)n1 (centres undefined)
